Experimental data as given in patent US11117918B2, “Enzyme-directed immunostimulant and uses thereof” (Washington State University, priority 2016, dated 2021).

Tests used:
JAWSII cells = assay: JAWSII ELISA cytokine production (TNF, IL-6, IL-12); format: cell-based, murine
Protocol: Measurement of JAWSII cytokine production was performed similarly to manufacturer instructions. The cytokines analyzed were IL-12, IL-6, and TNF. For the cytokine assays, 1×10^5 JAWSII cells were seeded in an optically clear bottomed 6-well plate in 1 mL of complete assay media (identical to JAWSII growth media) for a density of 1×10^5 cells/well. Cells were incubated for 42 h. For co-culture experiments with JAWSII and B16 or β-galactosidase-enriched B16 cells, JAWSII cells were seeded at a density of 1×10^5 cells/well and allowed to adhere for 42 h before the addition of B16 cells, which were seeded at a density of 1×10^5 cells/well. For co-culture experiments with JAWSII and β-galactosidase-enriched B16 cells, JAWSII cells were seeded at a density of 1×10^5 cells/well and allowed to adhere for 42 h before the addition of β-galactosidase-enriched B16 cells, which were seeded at a density of 1×10^5 cells/well.
For experiments with β-gal, a stock solution (500 U/mL, where 1 U=1 μmol/min) was used. A final enzymatic activity of 1 U/well was achieved by addition of 2 μL of the 500 U/mL stock solution to each well. Stock solutions of Imiquimod or (6) in DMSO (1.15 and 1.49 mg/mL, respectively) were then added to the appropriate wells to achieve a final concentration of 5 μM. The cells were incubated for 16 h (37° C., 5% CO2) before supernatant was collected. Cells were pelletized (200 RCF, 10 min) and removed. Supernatant was analyzed for cytokines without further dilution according to manufacturer instructions for ELISA. Absorbance was analyzed at 450 nm and standard curves were used to determine absolute cytokine concentrations.

RAW-Blue cells = assay: RAW-Blue colorimetric assay (NF-κB transcription); format: cell-based
Protocol: Measurement of RAW-Blue cell activation was performed similarly to manufacturer instructions. For the NF-κB assay, 1×10^5 RAW-Blue cells were seeded in an optically clear bottomed 96-well plate in 180 μL of complete assay media (identical to B16 media) at a density of 1×10^5 cells/well. For co-culture experiments with RAW-Blue and B16 or β-galactosidase-enriched B16 cells, RAW-Blue cells were seeded at a density of 1×10^5 cells/well and were allowed to adhere for 4 h before the addition of the B16 cells, which were seeded at a density of 1×10^5 cells/well. For co-culture experiments with RAW-Blue and β-galactosidase-enriched B16 cells, RAW-Blue cells were seeded at a density of 1×10^5 cells/well and were allowed to adhere for 4 h before the addition off β-galactosidase-enriched B16 cells, which were seeded at a density of 1×10^5 cells/well.
For experiments with β-gal, a stock solution (500 U/mL, where 1 U=1 μmol/min) was used. A final enzymatic activity of 1 U/well was achieved by addition of 2 μL of the 500 U/mL stock solution to each well. Imiquimod or (6) were prepared as 1.15 and 1.49 mg/mL stock solutions, respectively, in DMSO, and were added to the appropriate wells to achieve the specified final concentrations in each experiment ranging from 0.1 to 10 μM. […] The PNPP assays were incubated for 3 h (37° C., 5% CO2), and the absorbance was measured at 405 nm. […]

AT3B1 cells = assay: Conversion of pro-immunostimulant to Imiquimod by α-Mannosidase or AT3B-1 cells, LC-MS/MS; format: cell-based, rat; conditions: α-Mannosidase 0.1 U/mL or AT3B1 cells, 0-48 h
Protocol: To concretely determine the conversion of pro-immunostimulant (compound 6) to Imiquimod in the presence of α-Mannosidase over time for exogenous and endogenous experiments, 20 μL aliquots of 100 μM (pro-immunostimulant (compound 6)) in DMEM were incubated with 180 μL of either α-Mannosidase (0.1 U/mL, 37° C., 5% CO2), or AT3B1 cells (1×105, or 5×105, or 1×10^6 cells, 37° C., 5% CO2) without the addition of exogenous enzyme as shown by FIG. 6. To stop the reaction at the specified time points (0, 1, 2, 3, 6, 12, 24, and 48 h), 50 μL AO Quench Internal Standard (20 μg/mL, 2-methyl-4(3H)-quinazolinone in 1 M formic acid) was added to each individual reaction. Samples were then analyzed via LC-MS/MS.
The AT3B-1 cell line (ATCC CRL-2375, rat prostate epithelial malignant carcinoma) were grown in complete culture media composed of Roswell Park Memorial Institute (RPMI) 1640 medium with 4.5 g/L glucose, 2 mM L-glutamine, 10,000 U/mL penstrep, 10 mM HEPES and supplemented with 10% HI-FBS and 1 μM doxorubicin. Media was changed every 3-4 days omitting the doxorubicin, and cells were passaged once per week. Passaging involved changing media, counting, and seeding 3×10^5 cells in 35 mL of new complete media in a new T-175 culture flask.
α-Mannosidase from Canavalia ensiformis (Jack bean) was used directly from the bottle to make a 1 U/mL stock solution in DPBS. […]

For “4-Imiquimod-2-nitrophenyl-galactopyranoside [compound 6]”, which “pro-inflammatory cytokine production (TNF, IL-6, IL-12)” value (JAWSII cells; 5 μm, without β-galactosidase) is on record?
The value was “not induce significant pro-inflammatory cytokine production”.

And the pro-inflammatory cytokine production (JAWSII cells; co-cultures of JAWSII and β-galactosidase-enriched B16 melanoma cells)?
The pro-inflammatory cytokine production was “resulted in the production of pro-inflammatory cytokines”.

What about the “cytokine production relative to Imiquimod, all three cytokines (TNF, IL-6, IL-12)” value (JAWSII cells; with exogenous β-galactosidase, equimolar Imiquimod) of the same substance?
Its value is greater than 80%.

And the NF-κB transcription (RAW-Blue cells; co-cultures of β-galactosidase-enriched B16 cells and RAW-Blue cells, relative to unaltered B16 co-cultures or RAW-Blue cells alone)?
The NF-κB transcription was “enhanced”.

What about the RAW-Blue cell activity (RAW-Blue cells; compound alone, relative to compound with 1 U β-galactosidase or Imiquimod, 16 h) of the same substance?
Its RAW-Blue cell activity is “abrogated”.

What about the “conversion to Imiquimod and efflux” value (AT3B1 cells) of the same substance?
The value was “still being converted in the presence of enzyme and effluxed”.
